Series [1] can be described thus: Stability test in liver microsomes. The series is classed as in vitro ADME, SD rat. The conditions noted are these: rat liver microsomes, 0.5 mg/mL, 1.0 µM substrate. How it is done:
Phase I metabolic stability of the test compounds in liver microsomes of CD-1 mice, Sprague-Dawley rats, and humans was assessed.
The animal and human liver microsomes used in the test system were purchased from Xenotech, Corning, or other qualified suppliers and stored in a freezer at a temperature below -60 °C prior to use. The information of the animal and human liver microsomes used was as follows:
The test samples and the reference compounds were separately incubated with animal and human liver microsomes at 37±1 °C for a period of incubation time of up to 60 min. The samples were taken out at the indicated time points, and the reaction was stopped with acetonitrile or another organic solvent containing an internal standard. After centrifugation, the resulting supernatants were assayed by the liquid chromatography-tandem mass spectrometry (LC-MS/MS) method.
Microsomes of each species were diluted into a 2× working solution with a 100 mM potassium phosphate buffer. […]
Incubation was performed in a 96-well plate. Eight incubation plates were prepared and designated T0, T5, T15, T30, T45, T60, Blank60, and NCF60, respectively. The first 6 plates corresponded to reaction time points of 0 min, 5 min, 15 min, 30 min, 45 min, and 60 min, respectively. No test sample or reference compound was added to the Blank60 plate, and samples were taken after 60 min of incubation. In the NCF60 plate, incubation was performed for 60 min using the potassium phosphate buffer instead of the NADPH regeneration system solution. Three replicates were made for samples in all conditions.
The microsomes and the test sample or reference compound were mixed, and then the incubation plates Blank60, T5, T15, T30, T45, and T60 except for T0 and NCF60 were placed in a 37 °C water bath for pre-incubation for about 10 min. In the incubation plate T0, a stop solution was first added, followed by the addition of the NADPH regeneration system working solution, and 98 µL of the potassium phosphate buffer was added to each sample well of the incubation plate NCF60 to initiate the reaction. After the pre-incubation of the incubation plates Blank60, T5, T15, T30, T45, and T60 was completed, 98 µL of the NADPH regeneration system working solution was added to each sample well to initiate the reaction. The reaction temperature was 37±1 °C, the final volume of the reaction was 200 µL, and the reaction system included 0.5 mg/mL microsomes, 1.0 µM substrate, 1 mM NADP, 6 mM ISO, and 1 unit/mL IDH.
At 5 min, 15 min, 30 min, 45 min, and 60 min, a cold stop solution containing an internal standard was added to the reaction plate to stop the reaction.
All the reaction plates after the reaction was stopped were shaken well and centrifuged at 3220× g at 4 °C for 20 min. After the supernatant was diluted at a certain ratio, LC-MS/MS analysis was performed.
Sample analysis was performed by the liquid chromatography-tandem mass spectrometry (LC-MS/MS) method without standard curves and quality control samples. Semi-quantitative determination was performed according to the ratio of the analyte peak area to the internal standard peak area. The retention times of the analyte and internal standard, the chromatogram acquisition, and chromatogram integration were processed using the Analyst software (Sciex, Framingham, Massachusetts, USA).
According to the well stir model, the hepatic intrinsic clearance and hepatic clearance can be converted through the following formula. CL(liver) = (CLint(liver)×Qh)/(CLint(liver)+Qh) [formula]
(Liver microsomes are vesicles of endoplasmic reticulum, rich in cytochrome P450 enzymes.)

Series [2] has as its system YAP-TEAD transcription complex. In words: YAP-TEAD reporter gene assay (dual luciferase, stably transfected 293T cells). The series is classed as cell-based. The conditions noted are these: Homo sapiens, HEK-293T.
The subject of series [3] is H226 cells. Kind of series: Pharmacodynamic test, H226 subcutaneous xenograft. The series is classed as in vivo, nude mice (BALB/c nu/nu). How it is done: Healthy female nude mice (BALB/c nu/nu) aged 6-8 weeks were housed in an SPF environment in accordance with animal ethical guidelines. The well-growing 10^7 H226 cells were harvested through trypsin digestion, washed in phosphate-buffered saline (PBS), and then resuspended in PBS containing 50% matrigel (BD Biosciences).
Subcutaneous injection was then performed at the dorsolateral sites of the mice, and the tumor volume was measured once every three days thereafter. When the tumor volume reached around 150-200 mm^3, the mice were randomly assigned to different treatment groups. Any one of the compounds described herein was prepared accordingly and administered at an appropriate dose. Finally, the tumor growth in the nude mice was analyzed after 4 to 6 weeks based on the growth of the tumors.

Where [4] appears, read: 293T reporter cells, 24 h of drug treatment, read-out: IC50.

Read-outs that look alike come from different tables or passages of the source.

With `CP(C)(=O)c1ccc2c(c1)c1ccccc1n2-c1ccc(C(F)(F)F)cc1` [Example 1], the half-life (as a rule, the time in which the quantity being followed falls by half) at 1 µM in series [1] is greater than 2.42 h. Moreover, the half-inhibitory concentration (IC50) (in general, the concentration at which inhibition is half-maximal) in series [2] (24 h) is 39.7 nM. Further, the TGI in series [3] (50mpk QD) turned out to be 50mpk QD TGI = 108.39%; in series [3] (100mpk QD) it was 100mpk QD TGI = 113.05%.
With `CP(C)(=O)c1ccc2c(c1)c1cccnc1n2-c1ccc(C(F)(F)F)cc1` [Example 5], in series [2] (setting [4]), the IC50 came out at 57.1 nM.
`CP(C)(=O)c1ccc2c(Oc3ccc(C(F)(F)F)cc3)cccc2c1` [Example 7] had a half-life at 1 µM in series [1] greater than 2.42 h. In addition, in series [2] (24 h), the IC50 was found to be 4.09 nM. Moreover, the TGI in series [3] (5mpk QD) stood at 5mpk QD TGI = 111.84%.
As to `Cn1cnc(-c2cc(P(C)(C)=O)cnc2Nc2ccc(C(F)(F)F)cc2)c1` [Example 8], in series [1], the half-life at 1 µM was greater than 2.42 h. The IC50 in series [2] (24 h) stood at 42.4 nM. Further, the TGI in series [3] (10mpk QD) is 10mpk QD TGI = 115.60%.
In turn, `CP(C)(=O)c1ccc(Nc2ccc(C(F)(F)F)cc2)c(-c2ccccn2)c1` [Example 10] registered a half-life at 1 µM in series [1] greater than 2.42 h. For the same compound, the IC50 in series [2] (setting [4]) came out at 100 nM. Moreover, the TGI in series [3] (25mpk QD) stood at 25mpk QD TGI = 100.89%.
On to `CP(C)(=O)c1ccc(Nc2ccc(C(F)(F)F)cc2)c(-c2ncccn2)c1` [Example 12], for which the half-life at 1 µM in series [1] was greater than 2.42 h. In series [2] (setting [4]), the IC50 was determined as 92.1 nM. The TGI in series [3] (50mpk QD) was found to be 50mpk QD TGI = 111.58%.
With `Cn1cnc(-c2cc(P(C)(C)=O)ccc2Nc2ccc(C(F)(F)F)cc2)c1` [Example 14], the half-life at 1 µM in series [1] is greater than 2.42 h. Also, 20.2 nM corresponded to half-maximal inhibition in series [2] (24 h) (IC50). Besides, the TGI in series [3] (10mpk QD) stood at 10mpk QD TGI = 100.38%.
With `CP(C)(=O)c1cnc(Nc2ccc(C(F)(F)F)cc2)c(-c2cn3c(n2)CCC3)c1` [Example 22], in series [1], the half-life at 1 µM is greater than 2.42 h. The IC50 in series [2] (24 h) was determined as 13.6 nM. Besides, the TGI in series [3] (10mpk QD) amounted to 10mpk QD TGI = 106.26%; in series [3] (30mpk QD) it was 30mpk QD TGI = 113.45%.
For `Cc1ccc(Oc2ccc(C(F)(F)F)cc2)c2ccc(P(C)(C)=O)cc12` [Example 24], the half-life at 1 µM in series [1] is 1.37 h. Moreover, in series [2] (24 h), half-maximal inhibition (IC50) was put at 135 nM.

(Values after EP4596561A1, “PHOSPHORUS-CONTAINING COMPOUND, PHARMACEUTICAL COMPOSITION AND USE THEREOF” (Suzhou Genhouse Bio Co., Ltd., priority 2022, dated 2024).)
